Assay results taken from the NIST ThermoML archive (doi:10.1016/j.jct.2006.10.008).

Columns and labels:
[1] = xn = mol fraction of the nth substance listed; conditions: 298.15 K, 101 kPa, Liquid
[2] = excess molar enthalpy (molar enthalpy of mixing); xn = mol fraction of the nth substance listed; conditions: 298.15 K, 101 kPa, Liquid, Calvet calorimetry

ClCCCCCl [1,4-dichlorobutane] + CCOC=O
Conditions | excess molar enthalpy, [2] [kJ/mol] | mass density, [1] [kg/m3]
x2 = 0.0774 | – | 1120.56
x2 = 0.083 | 0.11 | –
x2 = 0.1549 | – | 1107.96
x2 = 0.1706 | 0.176 | –
x2 = 0.229 | – | 1095.35
x2 = 0.256 | 0.221 | –
x2 = 0.2982 | – | 1083.08
x2 = 0.3368 | 0.244 | –
x2 = 0.3653 | – | 1070.71
x2 = 0.4094 | 0.244 | –
x2 = 0.4302 | – | 1058.33
x2 = 0.473 | 0.23 | –
x2 = 0.4921 | – | 1046.05
x2 = 0.5279 | 0.211 | –
x2 = 0.5517 | – | 1033.83
x2 = 0.5977 | 0.165 | –
x2 = 0.6131 | – | 1020.82
x2 = 0.6452 | 0.142 | –
x2 = 0.6683 | – | 1008.67
x2 = 0.6966 | 0.105 | –
x2 = 0.7211 | – | 996.7
x2 = 0.7477 | 0.0697 | –
x2 = 0.7717 | – | 984.84
x2 = 0.803 | 0.045 | –
x2 = 0.8212 | – | 973.13
x2 = 0.8543 | 0.0265 | –
x2 = 0.8674 | – | 961.66
x2 = 0.907 | 0.0156 | –
x2 = 0.9134 | – | 949.8
x2 = 0.9569 | 0.0093 | 938.37

ClCCCCCl [1,4-dichlorobutane] + COC=O
Conditions | excess molar enthalpy [kJ/mol] | mass density [kg/m3]
[1], x2 = 0.1002 | – | 1123.14
[1], x2 = 0.1967 | – | 1112.22
[1], x2 = 0.2763 | – | 1102.15
[1], x2 = 0.3523 | – | 1092.16
[1], x2 = 0.4263 | – | 1081.69
[1], x2 = 0.4898 | – | 1072.05
[1], x2 = 0.5567 | – | 1061.23
[1], x2 = 0.615 | – | 1051.3
[1], x2 = 0.6692 | – | 1041.41
[1], x2 = 0.7199 | – | 1031.71
[1], x2 = 0.7663 | – | 1022.34
[1], x2 = 0.8116 | – | 1012.65
[1], x2 = 0.8535 | – | 1003.36
[1], x2 = 0.8907 | – | 994.7
[1], x2 = 0.9302 | – | 985.1
[1], x2 = 0.9657 | – | 976.07
[2], x2 = 0.1071 | 0.177 | –
[2], x2 = 0.2326 | 0.335 | –
[2], x2 = 0.3559 | 0.4443 | –
[2], x2 = 0.4541 | 0.5006 | –
[2], x2 = 0.5426 | 0.5185 | –
[2], x2 = 0.5971 | 0.5148 | –
[2], x2 = 0.6515 | 0.5096 | –
[2], x2 = 0.7083 | 0.4875 | –
[2], x2 = 0.7662 | 0.4518 | –
[2], x2 = 0.8103 | 0.393 | –
[2], x2 = 0.8803 | 0.316 | –
[2], x2 = 0.9274 | 0.229 | –
[2], x2 = 0.9702 | 0.134 | –

ClCCCCCCl [1,5-dichloropentane] + CCCCOC=O
Conditions | excess molar enthalpy [kJ/mol] | mass density [kg/m3]
[1], x2 = 0.0753 | – | 1081.49
[1], x2 = 0.1366 | – | 1070.16
[1], x2 = 0.2613 | – | 1046.7
[1], x2 = 0.3251 | – | 1034.45
[1], x2 = 0.3849 | – | 1022.81
[1], x2 = 0.4446 | – | 1011
[1], x2 = 0.5039 | – | 999.1
[1], x2 = 0.6199 | – | 975.33
[1], x2 = 0.676 | – | 963.59
[1], x2 = 0.732 | – | 951.7
[1], x2 = 0.787 | – | 939.85
[1], x2 = 0.841 | – | 928.06
[1], x2 = 0.8939 | – | 916.34
[1], x2 = 0.9477 | – | 904.29
[2], x2 = 0.0722 | 0.003 | –
[2], x2 = 0.1463 | -0.0035 | –
[2], x2 = 0.2242 | -0.0226 | –
[2], x2 = 0.2989 | -0.0464 | –
[2], x2 = 0.3685 | -0.0785 | –
[2], x2 = 0.4319 | -0.112 | –
[2], x2 = 0.4894 | -0.132 | –
[2], x2 = 0.5395 | -0.148 | –
[2], x2 = 0.5701 | -0.155 | –
[2], x2 = 0.5843 | -0.154 | –
[2], x2 = 0.6266 | -0.144 | –
[2], x2 = 0.6861 | -0.13 | –
[2], x2 = 0.7462 | -0.113 | –
[2], x2 = 0.8107 | -0.0904 | –
[2], x2 = 0.8755 | -0.0652 | –
[2], x2 = 0.9382 | -0.0374 | –

ClCCCCCCl [1,5-dichloropentane] + CCCOC=O
Conditions | excess molar enthalpy [kJ/mol] | mass density [kg/m3]
[1], x2 = 0.0753 | – | 1084.21
[1], x2 = 0.1495 | – | 1073.17
[1], x2 = 0.2212 | – | 1062.01
[1], x2 = 0.2884 | – | 1051.29
[1], x2 = 0.3607 | – | 1039.4
[1], x2 = 0.4174 | – | 1029.7
[1], x2 = 0.4802 | – | 1018.63
[1], x2 = 0.5386 | – | 1008.06
[1], x2 = 0.6024 | – | 996.11
[1], x2 = 0.6568 | – | 985.57
[1], x2 = 0.7118 | – | 974.66
[1], x2 = 0.8133 | – | 953.48
[1], x2 = 0.8586 | – | 943.64
[1], x2 = 0.9056 | – | 933.22
[1], x2 = 0.9555 | – | 921.68
[2], x2 = 0.0792 | 0.0571 | –
[2], x2 = 0.1664 | 0.0915 | –
[2], x2 = 0.2538 | 0.116 | –
[2], x2 = 0.3307 | 0.121 | –
[2], x2 = 0.4063 | 0.118 | –
[2], x2 = 0.4789 | 0.105 | –
[2], x2 = 0.5175 | 0.0922 | –
[2], x2 = 0.5645 | 0.0738 | –
[2], x2 = 0.6145 | 0.0594 | –
[2], x2 = 0.6665 | 0.0391 | –
[2], x2 = 0.7229 | 0.02 | –
[2], x2 = 0.7817 | 0.0067 | –
[2], x2 = 0.8389 | -0.0104 | –
[2], x2 = 0.8948 | -0.0212 | –
[2], x2 = 0.9503 | -0.012 | –
